Results reported in patent US9113629B2, “4-amino-6-(4-substituted-phenyl)-picolinates and 6-amino-2-(4-substituted-phenyl)-pyrimidine-4-carboxylates and their use as herbicides” (DOW AGROSCIENCES LLC, priority 2013, dated 2015).

Experiments:
Test in all cases: Post-emergent Test III, herbicidal activity in wheat and barley
Format in all cases: in vivo
[1] = tested on: ALOMY: black-grass (Alopecurus myosuroides); settings: for pest or weed control at 35 g/ha / pest or weed control at 70 g/ha / pest or weed control at 140 g/ha: Alopecurus myosuroides, post-emergence, 504 h, read-out: Visual Growth Reduction (%) 21 Days After Application ALOMY; for pest or weed control at 35 g/ha: 35 g ai/ha; for pest or weed control at 70 g/ha: 70 g ai/ha; for pest or weed control at 140 g/ha: 140 g ai/ha; for GR50 ALOMY / GR80 ALOMY: probit analysis, 21 days after application; for GR50 ALOMY: dose for growth reduction of 50 percent; for GR80 ALOMY: dose for growth reduction of 80 percent
In short: (§1)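 Plants at the second to third true-leaf stage, grown in a greenhouse at about 18/17 °C with a 14 h photoperiod, were sprayed post-emergence at 187 L/ha with the high rate and ½× to 1/16× serial dilutions in an acetone/DMSO/crop-oil/surfactant carrier. Injury was rated visually at 21 d on a 0–100% scale, and GR20–GR90 were derived by probit analysis.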

[2] = tested on: BROTE: downy brome (Bromus tectorum); settings: for pest or weed control at 35 g/ha / pest or weed control at 70 g/ha / pest or weed control at 140 g/ha: Bromus tectorum, post-emergence, 504 h, read-out: Visual Growth Reduction (%) 21 Days After Application BROTE; for pest or weed control at 35 g/ha: 35 g ai/ha; for pest or weed control at 70 g/ha: 70 g ai/ha; for pest or weed control at 140 g/ha: 140 g ai/ha; for GR50 BROTE / GR80 BROTE: probit analysis, 21 days after application; for GR50 BROTE: dose for growth reduction of 50 percent; for GR80 BROTE: dose for growth reduction of 80 percent
In short: as §1

LAMSS = settings: for pest or weed control at 35 g/ha / pest or weed control at 70 g/ha / pest or weed control at 140 g/ha: post-emergence, 504 h, read-out: Visual Growth Reduction (%) 21 Days After Application LAMSS; for pest or weed control at 35 g/ha: 35 g ai/ha; for pest or weed control at 70 g/ha: 70 g ai/ha; for pest or weed control at 140 g/ha: 140 g ai/ha; for GR50 LAMSS / GR80 LAMSS: probit analysis, 21 days after application; for GR50 LAMSS: dose for growth reduction of 50 percent; for GR80 LAMSS: dose for growth reduction of 80 percent
In short: as §1

[3] = tested on: PAPRH: common poppy (Papaver rhoeas); settings: for pest or weed control at 35 g/ha / pest or weed control at 70 g/ha / pest or weed control at 140 g/ha: Papaver rhoeas, post-emergence, 504 h, read-out: Visual Growth Reduction (%) 21 Days After Application PAPRH; for pest or weed control at 35 g/ha: 35 g ai/ha; for pest or weed control at 70 g/ha: 70 g ai/ha; for pest or weed control at 140 g/ha: 140 g ai/ha; for GR50 PAPRH / GR80 PAPRH: probit analysis, 21 days after application; for GR50 PAPRH: dose for growth reduction of 50 percent; for GR80 PAPRH: dose for growth reduction of 80 percent
In short: as §1

[4] = tested on: VERPE: bird's-eye speedwell (veronica persica); settings: for pest or weed control at 35 g/ha / pest or weed control at 70 g/ha / pest or weed control at 140 g/ha: Veronica persica, post-emergence, 504 h, read-out: Visual Growth Reduction (%) 21 Days After Application VERPE; for pest or weed control at 35 g/ha: 35 g ai/ha; for pest or weed control at 70 g/ha: 70 g ai/ha; for pest or weed control at 140 g/ha: 140 g ai/ha; for GR50 VERPE / GR80 VERPE: probit analysis, 21 days after application; for GR50 VERPE: dose for growth reduction of 50 percent; for GR80 VERPE: dose for growth reduction of 80 percent
In short: as §1

Structure (SMILES)	pest or weed control at 35 g/ha [1] [%]	pest or weed control at 70 g/ha [1] [%]	pest or weed control at 140 g/ha [1] [%]	GR50 ALOMY [1] [g ai/ha]	GR80 ALOMY [1] [g ai/ha]	pest or weed control at 35 g/ha [2] [%]	pest or weed control at 70 g/ha [2] [%]	pest or weed control at 140 g/ha [2] [%]	pest or weed control at 35 g/ha (LAMSS) [%]	pest or weed control at 70 g/ha (LAMSS) [%]	pest or weed control at 140 g/ha (LAMSS) [%]	GR50 LAMSS (LAMSS) [g ai/ha]	GR80 LAMSS (LAMSS) [g ai/ha]	pest or weed control at 35 g/ha [3] [%]	pest or weed control at 70 g/ha [3] [%]	pest or weed control at 140 g/ha [3] [%]	GR50 PAPRH [3] [g ai/ha]	GR80 PAPRH [3] [g ai/ha]	pest or weed control at 35 g/ha [4] [%]	pest or weed control at 70 g/ha [4] [%]	also measured
COC(=O)c1nc(-c2ccc(OC(F)F)cc2)c(F)c(N)c1Cl [Compound 85]	0 to 29	0 to 29	0 to 29	>140	>140	0 to 29	0 to 29	0 to 29	85 to 94	85 to 94	85 to 94	0	6	85 to 94	95 to 100	95 to 100	1	3	30 to 44	45 to 59	GR50 BROTE [2]: >140 g ai/ha; GR80 BROTE [2]: >140 g ai/ha; pest or weed control at 140 g/ha [4]: 60 to 74%; GR50 VERPE [4]: 90 g ai/ha; GR80 VERPE [4]: >140 g ai/ha
COC(=O)c1nc(-c2ccc(Br)c(F)c2F)cc(N)c1Cl [Compound 114, methyl 4-amino-6-(4-bromo-2,3-difluorophenyl)-3-chloropicolinate]	0 to 29	0 to 29	0 to 29	>140	>140	0 to 29	0 to 29	0 to 29	85 to 94	85 to 94	95 to 100	1	4	95 to 100	95 to 100	95 to 100	1	4	30 to 44	30 to 44	GR50 BROTE [2]: >140 g ai/ha; GR80 BROTE [2]: >140 g ai/ha; pest or weed control at 140 g/ha [4]: 30 to 44%; GR50 VERPE [4]: >140 g ai/ha; GR80 VERPE [4]: >140 g ai/ha
N#Cc1ccc(-c2nc(C(=O)O)c(Cl)c(N)c2F)cc1 [Compound 39]	0 to 29	45 to 59	45 to 59	111	>140	0 to 29	0 to 29	0 to 29	95 to 100	95 to 100	95 to 100	1	1	95 to 100	95 to 100	95 to 100	0	0	85 to 94	85 to 94	pest or weed control at 140 g/ha [4]: 95 to 100%; GR50 VERPE [4]: 1 g ai/ha; GR80 VERPE [4]: 12 g ai/ha
Nc1c(F)c(-c2ccc(I)cc2)nc(C(=O)O)c1Cl [Compound 45, 4-amino-3-chloro-5-fluoro-6-(4-iodophenyl)picolinic acid]	75 to 84	85 to 94	95 to 100	9	27	85 to 94	85 to 94	95 to 100	85 to 94	95 to 100	95 to 100	1	6	95 to 100	95 to 100	95 to 100	1	1	75 to 84	85 to 94	GR50 BROTE [2]: 13 g ai/ha; GR80 BROTE [2]: 36 g ai/ha; pest or weed control at 140 g/ha [4]: 85 to 94%; GR50 VERPE [4]: 7 g ai/ha; GR80 VERPE [4]: 30 g ai/ha
